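Briefly, cells in 96-well plates were exposed to five compound concentrations for 48 h, and endpoints were estimated by linear interpolation. GI50 = concentration required for 50% inhibition of growth.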 Active and inactive are the calls of the source. Cut-off read from the data, not from the text of the source: active = GI50 up to about 1.1 µM and inactive = higher.
Legend:
Experiment in all cases: NCI-60 cell line screen, 48 h
TK-10 = test system: TK-10
DU-145 = test system: DU-145
SK-MEL-2 = test system: SK-MEL-2
HCT-15 = test system: HCT-15
SK-MEL-28 = test system: SK-MEL-28
NCI-H23 = test system: NCI-H23
SK-MEL-5 = test system: SK-MEL-5
SK-OV-3 = test system: SK-OV-3
UO-31 = test system: UO-31
HCC 2998 = test system: HCC 2998
786-0 = test system: 786-0
COLO 205 = test system: COLO 205
HOP-62 = test system: HOP-62
SF-539 = test system: SF-539
MDA-MB-435 = test system: MDA-MB-435
BT-549 = test system: BT-549
SW-620 = test system: SW-620
OVCAR-5 = test system: OVCAR-5
HT-29 = test system: HT-29
PC-3 = test system: PC-3
HCT-116 = test system: HCT-116
RXF 393 = test system: RXF 393
K562 = test system: K562
HOP-92 = test system: HOP-92
SNB-19 = test system: SNB-19
KM12 = test system: KM12
EKVX = test system: EKVX
MOLT-4 = test system: MOLT-4
ACHN = test system: ACHN
LOX IMVI = test system: LOX IMVI
A549 = test system: A549
M14 = test system: M14
Malme-3M = test system: Malme-3M
OVCAR-3 = test system: OVCAR-3
HL-60 = test system: HL-60
SF-295 = test system: SF-295
MCF7 = test system: MCF7
NCI-H226 = test system: NCI-H226
U-251 = test system: U-251
OVCAR-4 = test system: OVCAR-4
SNB-75 = test system: SNB-75
A498 = test system: A498
CAKI-1 = test system: CAKI-1
SR = test system: SR
RPMI-8226 = test system: RPMI-8226
T47D = test system: T47D
MDA-MB-231 = test system: MDA-MB-231
NCI-H460 = test system: NCI-H460
UACC-62 = test system: UACC-62
NCI/ADR-RES = test system: NCI/ADR-RES
MDA-N = test system: MDA-N
Hs-578T = test system: Hs-578T
IGROV-1 = test system: IGROV-1
CCRF-CEM = test system: CCRF-CEM
OVCAR-8 = test system: OVCAR-8
NCI-H522 = test system: NCI-H522
SF-268 = test system: SF-268
SN12C = test system: SN12C
UACC-257 = test system: UACC-257

Measured: GI50

COc1ccc(-c2cc(-c3ccc(Nc4ccnc5cc(C(F)(F)F)ccc45)cc3)nc(N)c2C#N)cc1
60.5 µM: HCT-15
inactive: TK-10 > 100 µM | DU-145 > 100 µM | SK-MEL-2 45.2 µM | SK-MEL-28 32.5 µM | NCI-H23 > 100 µM | SK-MEL-5 > 100 µM | SK-OV-3 > 100 µM | UO-31 > 100 µM | HCC 2998 > 100 µM | 786-0 > 100 µM | COLO 205 > 100 µM | HOP-62 43.6 µM | SF-539 34.6 µM | MDA-MB-435 > 100 µM | BT-549 46.2 µM | SW-620 62.1 µM | OVCAR-5 > 100 µM | HT-29 > 100 µM | PC-3 45.1 µM | HCT-116 23.2 µM | RXF 393 > 100 µM | K562 > 100 µM | HOP-92 26.1 µM | SNB-19 42.7 µM | KM12 86.9 µM | EKVX > 100 µM | MOLT-4 95.5 µM | ACHN > 100 µM | LOX IMVI 33.3 µM | A549 > 100 µM | M14 96.8 µM | Malme-3M > 100 µM | OVCAR-3 14.6 µM | HL-60 > 100 µM | SF-295 32 µM | MCF7 35.9 µM | NCI-H226 > 100 µM | U-251 75 µM | OVCAR-4 27.7 µM | SNB-75 31 µM | A498 > 100 µM | CAKI-1 > 100 µM | SR 26.7 µM | RPMI-8226 > 100 µM | T47D 46.1 µM | MDA-MB-231 99.8 µM | NCI-H460 > 100 µM | UACC-62 40.6 µM | NCI/ADR-RES > 100 µM

Cc1ccc(C(CC(=O)C(C)(C)CN2CCCCC2)SCCS(=O)(=O)O)cc1 (configuration not stated)
inactive: TK-10 25.9 µM | DU-145 41.9 µM | MDA-N 31 µM | SK-MEL-2 12.5 µM | Hs-578T 30.7 µM | IGROV-1 33.9 µM | NCI-H23 27.9 µM | SK-MEL-5 23.2 µM | SK-OV-3 49.3 µM | UO-31 25.2 µM | HCC 2998 39.4 µM | 786-0 26.2 µM | COLO 205 18.8 µM | HOP-62 36.6 µM | SF-539 23.2 µM | MDA-MB-435 23.7 µM | BT-549 74.6 µM | SW-620 25.8 µM | OVCAR-5 20.9 µM | HT-29 24 µM | PC-3 34.4 µM | HCT-116 22.3 µM | RXF 393 11.8 µM | K562 11.6 µM | HOP-92 17.1 µM | SNB-19 57.4 µM | KM12 31.1 µM | EKVX 21.9 µM | MOLT-4 20.8 µM | ACHN 25.2 µM | A549 36.1 µM | M14 23.8 µM | Malme-3M 26.4 µM | OVCAR-3 15.5 µM | CCRF-CEM 19.3 µM | SF-295 15 µM | MCF7 21.6 µM | NCI-H226 30.7 µM | OVCAR-8 21.9 µM | U-251 29.4 µM | OVCAR-4 31.6 µM | SNB-75 31.3 µM | A498 19.7 µM | CAKI-1 22.3 µM | SR 12.2 µM | NCI-H522 25.8 µM | RPMI-8226 22.1 µM | SF-268 37.8 µM | SN12C 25.3 µM | MDA-MB-231 34.7 µM | NCI-H460 42.3 µM | UACC-62 21.7 µM | NCI/ADR-RES 28.8 µM
22.6 µM: HCT-15

CCOC(=O)c1nc2ccc(C(F)(F)F)cc2nc1Oc1ccc(C#N)cc1
38.4 µM: HCT-15
inactive: TK-10 30.1 µM | DU-145 18.5 µM | SK-MEL-2 15.7 µM | Hs-578T 14.3 µM | IGROV-1 14.5 µM | SK-MEL-28 43.1 µM | NCI-H23 40.3 µM | SK-MEL-5 38.3 µM | SK-OV-3 15.7 µM | UO-31 40.3 µM | HCC 2998 61.4 µM | 786-0 18 µM | COLO 205 27.4 µM | HOP-62 15.5 µM | SF-539 19.5 µM | MDA-MB-435 42.9 µM | BT-549 18.8 µM | SW-620 40.3 µM | HT-29 23.3 µM | PC-3 17.3 µM | HCT-116 48.5 µM | RXF 393 20 µM | K562 > 100 µM | HOP-92 17 µM | SNB-19 17.7 µM | KM12 23.6 µM | EKVX 14 µM | MOLT-4 > 100 µM | ACHN 29.9 µM | LOX IMVI 39.6 µM | M14 18.5 µM | CCRF-CEM > 100 µM | HL-60 > 100 µM | SF-295 14.8 µM | MCF7 18.2 µM | NCI-H226 11.3 µM | OVCAR-8 19.6 µM | U-251 26.3 µM | OVCAR-4 29.6 µM | SNB-75 14.5 µM | A498 23.3 µM | CAKI-1 20.3 µM | SR 81.5 µM | RPMI-8226 > 100 µM | SF-268 15.5 µM | T47D 28.4 µM | UACC-257 25.5 µM | MDA-MB-231 12.9 µM | NCI-H460 46.7 µM | UACC-62 19.1 µM | NCI/ADR-RES 18.2 µM

CN(C)C(=O)C(F)(F)C(c1ccc(C(F)(F)F)cc1)C1C(=O)N(C)C(=O)N(C)C1=O (configuration not stated)
inactive: TK-10 > 100 µM | DU-145 > 100 µM | SK-MEL-2 > 100 µM | SK-MEL-28 > 100 µM | NCI-H23 > 100 µM | SK-MEL-5 > 100 µM | SK-OV-3 > 100 µM | UO-31 > 100 µM | HCC 2998 > 100 µM | 786-0 > 100 µM | COLO 205 > 100 µM | HOP-62 > 100 µM | MDA-MB-435 > 100 µM | BT-549 > 100 µM | SW-620 > 100 µM | OVCAR-5 > 100 µM | PC-3 > 100 µM | HCT-116 > 100 µM | RXF 393 78.3 µM | HOP-92 > 100 µM | SNB-19 > 100 µM | KM12 > 100 µM | EKVX > 100 µM | ACHN > 100 µM | LOX IMVI > 100 µM | A549 > 100 µM | M14 > 100 µM | OVCAR-3 > 100 µM | CCRF-CEM > 100 µM | SF-295 > 100 µM | MCF7 > 100 µM | NCI-H226 > 100 µM | U-251 > 100 µM | OVCAR-4 > 100 µM | SNB-75 > 100 µM | A498 > 100 µM | CAKI-1 > 100 µM | RPMI-8226 > 100 µM | SF-268 > 100 µM | T47D > 100 µM | UACC-257 > 100 µM | MDA-MB-231 > 100 µM | NCI-H460 > 100 µM | UACC-62 > 100 µM | NCI/ADR-RES > 100 µM
> 100 µM: HCT-15
